This note sets out measurements from US20100048950A1 (BOEHRINGER INGELHEIM INTERNATIONAL GMBH, priority 2007, published 2010).

Some results are limits rather than exact numbers.

One may read the IC50 as the concentration that inhibits the measured activity by half.

This assay has as its target T1, human glucocorticoid receptor (GR) complex (Homo sapiens, UniProt P04150).
T1 construct: made in house; host or cells: insect expression system (baculovirus lysate)
T1 sequence (P04150 1-777): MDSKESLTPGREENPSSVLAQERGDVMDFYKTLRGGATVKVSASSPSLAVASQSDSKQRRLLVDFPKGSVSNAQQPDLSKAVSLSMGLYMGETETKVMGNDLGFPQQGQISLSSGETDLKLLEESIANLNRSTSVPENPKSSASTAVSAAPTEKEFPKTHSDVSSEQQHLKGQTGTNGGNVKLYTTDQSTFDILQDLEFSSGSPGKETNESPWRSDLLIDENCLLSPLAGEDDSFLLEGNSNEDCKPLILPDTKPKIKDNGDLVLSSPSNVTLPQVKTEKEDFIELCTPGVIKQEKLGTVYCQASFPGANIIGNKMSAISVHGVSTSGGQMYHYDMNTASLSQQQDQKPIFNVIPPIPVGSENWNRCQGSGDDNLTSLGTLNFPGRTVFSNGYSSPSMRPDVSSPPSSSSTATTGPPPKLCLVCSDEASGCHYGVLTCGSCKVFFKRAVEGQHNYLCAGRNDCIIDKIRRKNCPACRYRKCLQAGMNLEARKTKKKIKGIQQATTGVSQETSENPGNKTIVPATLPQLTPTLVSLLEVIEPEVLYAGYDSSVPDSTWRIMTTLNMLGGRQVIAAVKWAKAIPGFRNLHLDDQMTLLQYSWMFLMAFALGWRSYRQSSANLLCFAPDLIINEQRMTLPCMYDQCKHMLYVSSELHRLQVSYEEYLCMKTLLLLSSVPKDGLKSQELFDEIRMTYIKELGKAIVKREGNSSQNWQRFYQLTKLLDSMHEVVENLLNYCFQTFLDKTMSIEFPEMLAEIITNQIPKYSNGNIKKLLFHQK
Nature of the assay: Glucocorticoid receptor competitive binding assay (fluorescence polarization). As to conditions: competition with TAMRA-labeled dexamethasone, read-out: potent activity (IC50) in the GR binding assay. The essentials: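 Human GR complex in baculovirus insect-cell lysate (1:170) competed against 15 nM TAMRA-dexamethasone stock for 1 h at room temperature. Buffer: TES/KCl/molybdate/EDTA/CHAPS/glycerol/DTT, pH 7.4, 1% DMSO final. FP read at 550/580 nm; IC50 from 4-parameter logistic fit.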
A general note: Fluorescence polarisation rises when a labelled molecule tumbles more slowly, as on binding a larger partner.
Regarding `Cc1cc(C)c(S(=O)(=O)NC(COc2cccc(OC(F)(F)F)c2)C(F)(F)F)c(C)c1` (stereo not drawn) [2,4,6-Trimethyl-N-[2,2,2-trifluoro-1-(3-trifluoromethoxyphenoxymethyl)ethyl]benzenesulfonamide], the IC50 is no more than 100 nM.

With `Cc1cc(C)c(S(=O)(=O)NC(COc2ccc(Cl)cc2)C(F)(F)F)c(C)c1` (stereo not drawn), the IC50 is no more than 100 nM.

In the case of `Cc1cc(C)c(S(=O)(=O)NC(CNc2ccc(C#N)c(Cl)c2)C(F)(F)F)c(C)c1` (stereo not drawn) [N-{1-[(3-Chloro-4-cyanophenylamino)methyl]-2,2,2-trifluoroethyl}-2,4,6-trimethylbenzenesulfonamide], the IC50 was no more than 100 nM.

Regarding `Cc1cc(C)c(S(=O)(=O)NC(COc2cccc3c2CCCC3=O)C(F)(F)F)c(C)c1` (stereo not drawn) [2,4,6-Trimethyl-N-[2,2,2-trifluoro-1-(5-oxo-5,6,7,8-tetrahydronaphthalen-1-yloxymethyl)ethyl]benzenesulfonamide], the IC50 is no more than 100 nM.

Take `Cc1ccc(NCC(NS(=O)(=O)c2c(C)cc(C)cc2C)C(F)(F)F)cc1` (stereo not drawn) [2,4,6-Trimethyl-N-[2,2,2-trifluoro-1-(p-tolylaminomethyl)ethyl]benzenesulfonamide]: the IC50 was no more than 100 nM.

As for `COc1ccc(OC)c(SCC(NS(=O)(=O)c2c(C)cc(C)cc2C)C(F)(F)F)c1` (stereo not drawn) [N-[1-(2,5-Dimethoxyphenylsulfanylmethyl)-2,2,2-trifluoroethyl]-2,4,6-trimethylbenzenesulfonamide], the IC50 was no more than 100 nM.

`Cc1cc(C)c(S(=O)(=O)NC(COc2cccc(C(F)(F)F)c2)C(F)(F)F)c(C)c1` (stereo not drawn) [2,4,6-Trimethyl-N-[2,2,2-trifluoro-1-(3-trifluoromethylphenoxymethyl)ethyl]benzenesulfonamide]: the IC50 is no more than 100 nM.

Take `COc1cc(NCC(NS(=O)(=O)c2c(C)cc(C)cc2C)C(F)(F)F)cc(C(F)(F)F)c1` (stereo not drawn) [2,4,6-Trimethyl-N-{2,2,2-trifluoro-1-[(3-methoxy-5-trifluoromethylphenylamino)methyl]ethyl}benzenesulfonamide]: the IC50 is no more than 100 nM.

On to `Cc1cc(C)c(S(=O)(=O)NC(CNc2cccc(C)c2C#N)C(F)(F)F)c(C)c1` (stereo not drawn) [N-{1-[(2-Cyano-3-methylphenylamino)methyl]-2,2,2-trifluoroethyl}-2,4,6-trimethylbenzenesulfonamide], for which the half-maximal inhibitory concentration (IC50) is no more than 100 nM.

`Cc1cc(C)c(S(=O)(=O)NC(COc2cc(F)c(F)cc2F)C(F)(F)F)c(C)c1` (stereo not drawn) [2,4,6-Trimethyl-N-[2,2,2-trifluoro-1-(2,4,5-trifluorophenoxymethyl)ethyl]benzenesulfonamide]: the IC50 was no more than 100 nM.

With `CCN(CC(NS(=O)(=O)c1c(C)cc(C)cc1C)C(F)(F)F)c1ccccc1` (stereo not drawn) [N-{1-[(Ethylphenylamino)methyl]-2,2,2-trifluoroethyl}-2,4,6-trimethylbenzenesulfonamide], the IC50 is no more than 100 nM.

Consider `COC(=O)c1ccccc1NCC(NS(=O)(=O)c1c(C)cc(C)cc1C)C(F)(F)F` (stereo not drawn) [2-[3,3,3-Trifluoro-2-(2,4,6-trimethylbenzenesulfonylamino)propylamino]benzoic acid methyl ester], for which the IC50 is no more than 100 nM.

As to `Cc1cc(C)c(S(=O)(=O)NC(COc2ccc(C)c(Cl)c2)C(F)(F)F)c(C)c1` (stereo not drawn) [N-[1-(3-Chloro-4-methylphenoxymethyl)-2,2,2-trifluoroethyl]-2,4,6-trimethylbenzenesulfonamide], the IC50 was no more than 100 nM.

On to `COc1ccc(C(F)(F)F)cc1NCC(NS(=O)(=O)c1c(C)cc(C)cc1C)C(F)(F)F` (stereo not drawn) [2,4,6-Trimethyl-N-{2,2,2-trifluoro-1-[(2-methoxy-5-trifluoromethylphenylamino)methyl]ethyl}benzenesulfonamide], for which the IC50 is no more than 100 nM.

Consider `Cc1ccc(NCC(NS(=O)(=O)c2c(C)cc(C)cc2C)C(F)(F)F)c(C)c1` (stereo not drawn) [N-{1-[(2,4-Dimethylphenylamino)methyl]-2,2,2-trifluoroethyl}-2,4,6-trimethylbenzenesulfonamide], for which the IC50 is no more than 100 nM.

Take `Cc1cc(C)c(S(=O)(=O)NC(COc2cc(F)cc(C(F)(F)F)c2)C(F)(F)F)c(C)c1` (stereo not drawn) [2,4,6-Trimethyl-N-[2,2,2-trifluoro-1-(3-fluoro-5-trifluoromethylphenoxymethyl)ethyl]benzenesulfonamide]: the concentration for half-maximal inhibition (IC50) is no more than 100 nM.

Take `Cc1cc(C)c(S(=O)(=O)NC(COc2ccc(C)cc2Cl)C(F)(F)F)c(C)c1` (stereo not drawn) [N-[1-(2-Chloro-4-methylphenoxymethyl)-2,2,2-trifluoroethyl]-2,4,6-trimethylbenzenesulfonamide]: the IC50 is no more than 100 nM.

Take `CCOc1cccc(SCC(NS(=O)(=O)c2c(C)cc(C)cc2C)C(F)(F)F)c1` (stereo not drawn) [N-[1-(3-Ethoxyphenylsulfanylmethyl)-2,2,2-trifluoroethyl]-2,4,6-trimethylbenzenesulfonamide]: the IC50 is no more than 100 nM.

Turning to `Cc1cc(C)c(S(=O)(=O)NC(COc2ccc(C#N)cc2)C(F)(F)F)c(C)c1` (stereo not drawn) [N-[1-(4-Cyanophenoxymethyl)-2,2,2-trifluoroethyl]-2,4,6-trimethylbenzenesulfonamide], the IC50 was no more than 100 nM.

With `Cc1cc(C)c(S(=O)(=O)NC(CSc2ccccc2)C(F)(F)F)c(C)c1` (stereo not drawn) [2,4,6-Trimethyl-N-(2,2,2-trifluoro-1-phenylsulfanylmethylethyl)benzenesulfonamide], the IC50 is no more than 100 nM.

`Cc1cc(C)c(S(=O)(=O)NC(COc2ccc(Br)cc2C)C(F)(F)F)c(C)c1` (stereo not drawn) [N-[1-(4-Bromo-2-methylphenoxymethyl)-2,2,2-trifluoroethyl]-2,4,6-trimethylbenzenesulfonamide]: the IC50 is no more than 100 nM.

In the case of `Cc1cc(C)c(S(=O)(=O)NC(CNc2cccc(Cl)c2C#N)C(F)(F)F)c(C)c1` (stereo not drawn) [N-{1-[(3-Chloro-2-cyanophenylamino)methyl]-2,2,2-trifluoroethyl}-2,4,6-trimethylbenzenesulfonamide], the IC50 is no more than 100 nM.

`Cc1cc(C)c(S(=O)(=O)NC(CNc2ccccc2)C(F)(F)F)c(C)c1` (stereo not drawn) [2,4,6-Trimethyl-N-(2,2,2-trifluoro-1-phenylaminomethylethyl)benzenesulfonamide]: the IC50 was no more than 100 nM.

Regarding `Cc1cc(C)c(S(=O)(=O)NC(CNc2c(F)cc(F)cc2F)C(F)(F)F)c(C)c1` (stereo not drawn) [2,4,6-Trimethyl-N-{2,2,2-trifluoro-1-[(2,4,6-trifluorophenylamino)methyl]ethyl}benzenesulfonamide], the IC50 was no more than 100 nM.

Take `Cc1cc(C)c(S(=O)(=O)NC(COc2ccc(Cl)cc2F)C(F)(F)F)c(C)c1` (stereo not drawn) [N-[1-(4-Chloro-2-fluorophenoxymethyl)-2,2,2-trifluoroethyl]-2,4,6-trimethylbenzenesulfonamide]: the IC50 was no more than 100 nM.

In the case of `COc1cccc(SCC(NS(=O)(=O)c2c(C)cc(C)cc2C)C(F)(F)F)c1` (stereo not drawn) [2,4,6-Trimethyl-N-[2,2,2-trifluoro-1-(3-methoxyphenylsulfanylmethyl)ethyl]benzenesulfonamide], the IC50 is no more than 100 nM.

As to `Cc1cc(C)c(S(=O)(=O)NC(CNc2ccccc2C#N)C(F)(F)F)c(C)c1` (stereo not drawn) [N-{1-[(2-Cyanophenylamino)methyl]-2,2,2-trifluoroethyl}-2,4,6-trimethylbenzenesulfonamide], the IC50 was no more than 100 nM.

With `CC[C@@](C)(CN(CCC#N)c1cccc2ccccc12)NS(=O)(=O)c1c(C)cc(C)cc1C` [N—((S)-1-{[(2-Cyanoethyl)naphthalen-1-ylamino]methyl}-1-methylpropyl)-2,4,6-trimethylbenzenesulfonamide], the IC50 was no more than 100 nM.

Turning to `CCN(CC(NS(=O)(=O)c1c(C)cc(C)cc1C)C(F)(F)F)c1cccc(C)c1` (stereo not drawn) [N-{1-[(Ethyl-m-tolylamino)methyl]-2,2,2-trifluoroethyl}-2,4,6-trimethylbenzenesulfonamide], the IC50 is no more than 100 nM.

For `Cc1cc(C)c(S(=O)(=O)NC(COc2ccccc2C(F)(F)F)C(F)(F)F)c(C)c1` (stereo not drawn) [2,4,6-Trimethyl-N-[2,2,2-trifluoro-1-(2-trifluoromethylphenoxymethyl)ethyl]benzenesulfonamide], the IC50 is no more than 100 nM.

With `Cc1cc(C)c(S(=O)(=O)NC(CSc2ccc(C(C)C)cc2)C(F)(F)F)c(C)c1` (stereo not drawn) [2,4,6-Trimethyl-N-[2,2,2-trifluoro-1-(4-isopropylphenylsulfanylmethyl)ethyl]benzenesulfonamide], the IC50 is no more than 100 nM.

Regarding `Cc1cc(C)c(S(=O)(=O)NC(CSc2cccc(OC(F)(F)F)c2)C(F)(F)F)c(C)c1` (stereo not drawn) [2,4,6-Trimethyl-N-[2,2,2-trifluoro-1-(3-trifluoromethoxyphenylsulfanylmethyl)ethyl]benzenesulfonamide], the IC50 was no more than 100 nM.

As for `CC[C@@H](CNc1ccc(C)cc1C)NS(=O)(=O)c1c(C)cc(C)cc1C` [N-{(S)-1-[(2,4-Dimethylphenylamino)methyl]propyl}-2,4,6-trimethylbenzenesulfonamide], the IC50 is no more than 100 nM.
